Marks after values point to notes of the source that are not given here.

Assay [1] has as its target Human-SGLT1 (Homo sapiens (Human), UniProt P13866). Put plainly: SGLT1 glucose transport test. Type of assay: cell-based. To be noted: cells stably expressing Human-SGLT1; [14C]-labeled methyl α-D-glucopyranoside uptake, 37° C., 2 hours. How it is done: • Biological activity experiment 1: SGLT1 glucose transport test 1. Experimental Purpose:
The effect of the compound on the glucose transport activity of the SGLT1 transporter was detected through measuring the amount of [^14C]-labeled glucose entering the cells with high expression of Human-SGLT1.
The cells stably expressing Human-SGLT1 used in the experiment were constructed by Shanghai WuXi AppTec. The SGLT1 cells were plated on a Cytostar-T (PerkinElmer) 96-well cell culture plate, and cultured overnight at 5% CO2 at 37° C.
2.2. SGLT1 Glucose Transport Test
1) Experimental buffer: 10 mM 4-hydroxyethylpiperazine ethanesulfonic acid (HEPES), 1.2 mM magnesium chloride (MgCl2), 4.7 mM potassium chloride (KCl), 2.2 mM calcium chloride (CaCl2) and 120 mM sodium chloride (NaCl).
2) The compound was diluted with 100% dimethyl sulfoxide (DMSO) with 1 mM as the starting concentration and 8 points of 5-fold serial dilutions.
3) 3 μM [^14C]-labeled methyl α-D-glucopyranoside was prepared with experimental buffer.
4) The cells were treated with 49 μL of experimental buffer, 1 μL of the compound which was gradient diluted, and 50 μL of 3 μM [^14C] isotope-labeled sugar solution at 37° C. for 2 hours.
5) The isotope detector (Micro beta Reader) was used to read.
6) The data was calculated by GraphPad Prism 5.0 software: log(inhibitor) vs. response—Variable slope to obtain the IC50 value of the test compound. The experimental results were shown in Table 3. • Biological activity experiment 2: SGLT2 glucose transport test 1.

Assay [2] concerns the target Human-SGLT2 (Homo sapiens (Human), UniProt P31639). Put plainly: SGLT2 glucose transport test. Type of assay: cell-based. The note with it: cells stably expressing Human-SGLT2; [14C]-labeled methyl α-D-glucopyranoside uptake, 37° C., 2 hours. How it is done:
6) The data was calculated by GraphPad Prism 5.0 software: log(inhibitor) vs. response—Variable slope to obtain the IC50 value of the test compound. The experimental results were shown in Table 3. • Biological activity experiment 2: SGLT2 glucose transport test 1. Experimental Purpose:
The effect of the compound on the glucose transport activity of the SGLT2 transporter was detected through measuring the amount of [^14C]-labeled glucose entering the cells with high expression of Human-SGLT2.
The cells stably expressing Human-SGLT2 used in the experiment were constructed by Shanghai WuXi AppTec. The SGLT2 cells were plated on a 96-well cell culture plate (Greiner) and cultured overnight at 5% CO2 at 37° C.
2.2. SGLT2 Glucose Transport Test
1) Experimental buffer: 10 mM 4-hydroxyethylpiperazine ethanesulfonic acid (HEPES), 1.2 mM magnesium chloride (MgCl2), 4.7 mM potassium chloride (KCl), 2.2 mM calcium chloride (CaCl2)) and 120 mM sodium chloride (NaCl).
2) Termination buffer: 10 mM 4-hydroxyethylpiperazine ethanesulfonic acid (HEPES), 1.2 mM magnesium chloride (MgCl2), 4.7 mM potassium chloride (KCl), 2.2 mM calcium chloride (CaCl2), 120 mM sodium chloride (NaCl) and 1 μM LX4211.
3) The compound was diluted with 100% dimethyl sulfoxide (DMSO) with a starting concentration of 10 μM and 8 points of 5-fold serial dilution.
4) 6 μM [^14C]-labeled methyl α-D-glucopyranoside was prepared with experimental buffer.
5) The cells were treated with 49 μL of experimental buffer, 1 μL of gradient diluted compound, and 50 μL of 6 μM [^14C]isotope-labeled sugar solution at 37° C. for 2 hours.
6) The liquid in the well was aspirated and the cells were rinsed 3 times with termination buffer.
7) The cells were lysed with 50 μL of 10% sodium hydroxide solution, the cell lysate was aspirated into the scintillation tube, and 2 mL of scintillation fluid was added.
8) An isotope detector (Tricarb) was used to read.
9) The data was calculated by GraphPad Prism 5.0 software: log(inhibitor) vs. response—Variable slope to obtain the IC50 value of the test compound. The experimental results were shown in Table 3. • Biological activity experiment 3: rhDPP4 inhibitor screening experiment 1.

Assay [3] addresses recombinant human dipeptidyl peptidase 4 (rhDPP4) (Homo sapiens (Human), UniProt P27487). Kind of assay: rhDPP4 inhibitor screening experiment. Type of assay: biochemical. The note with it: Gly-Pro-aminoluciferin substrate, luminescence, room temperature 1 hour. How it is done: 9) The data was calculated by GraphPad Prism 5.0 software: log(inhibitor) vs. response—Variable slope to obtain the IC50 value of the test compound. The experimental results were shown in Table 3. • Biological activity experiment 3: rhDPP4 inhibitor screening experiment 1. Experimental Purpose:
The inhibitory activity of the compounds on recombinant human dipeptidyl peptidase 4 (rhDPP4) was evaluated by measuring the median inhibitory concentration (IC50) value of the compounds. In this experiment, rhDPP4 was used to catalyze a substrate to produce luciferin, and reacted with luciferase to produce light signals, wherein the substrate is the luminescent precursor glycine-proline-[…] (Gly-Pro-aminoluciferin). The intensity of the light signal is directly proportional to the enzyme activity.
1) 250 nL of gradient diluted compound (4 times dilution, 10 detection concentrations) was transferred to a 384-well plate (PerkingElmer-6007299) using a non-contact nano-upgraded acoustic pipetting system (ECHO). The concentration of dimethylsulfoxide (DMSO) concentration was 0.5% in the final reaction system. Blank control wells (containing DMSO, substrate and 10 mM of tris(hydroxymethyl)aminomethane hydrochlorid (Tris-HCl)) and positive control wells (containing DMSO, substrate and rhDPP4) were set.
2) The pre-packed frozen buffer containing luciferase was taken out and restored to room temperature, and then added with substrate to prepare a working solution with a substrate concentration of 20 μM. The rhDPP4 was prepared as a 0.2 ng/mL working solution with 10 mM Tris-HCl (pH8.0) aqueous solution.
3) 25 μL of working solution containing 20 μM substrate and 25 μL of working solution containing 0.2 ng/mL rhDPP4 were added to the 384-well plate with the compound added already. The plate was centrifuged at 1000 rpm for 30 s. The plate was sealed with aluminum foil sealing film and incubated at room temperature for 1 hour.
4) The light signal intensity was detected with a multi-function enzyme label detector EnVision. […]

Assay [4] concerns SD rat. Kind of assay: Rat oral glucose tolerance test (OGTT) in vivo. To be noted: 10 mg/kg single gavage. How it is done: 1. Animal: [table] 2. Experiment Grouping: [table] Experiment Process: 1. Animal Adaptation and Preparation: The experimental animals needed to be acclimatized in the animal room for 1 week after arriving at the facility. 2. Fasting and Administration The animals were fasted for 18 h in the metabolic cage, and drugs or solvents (2 mL/kg) were given according to the above table, and then 50% glucose solution (2 g/kg, 4 mL/kg) was administrated immediately. 3. Urine and Blood Sugar Test Two hours after the animals were given sugar, they resumed eating. The time points of 0 min, 15 min, 30 min, 45 min, 60 min and 120 min were collected for blood glucose determination; urine during 0-24 h was used for urine sugar (mg/200 g) and urine volume test respectively. 4. Data Analysis: All values will be expressed as average values. Statistical analysis was evaluated using Graphpad Prism 6 one-way analysis of variance Tukey's multiple comparison test. P value of less than 0.05 was considered of statistically significant.

recombinant human dipeptidyl peptidase 4 (rhDPP4), sequence (P27487 whole entry): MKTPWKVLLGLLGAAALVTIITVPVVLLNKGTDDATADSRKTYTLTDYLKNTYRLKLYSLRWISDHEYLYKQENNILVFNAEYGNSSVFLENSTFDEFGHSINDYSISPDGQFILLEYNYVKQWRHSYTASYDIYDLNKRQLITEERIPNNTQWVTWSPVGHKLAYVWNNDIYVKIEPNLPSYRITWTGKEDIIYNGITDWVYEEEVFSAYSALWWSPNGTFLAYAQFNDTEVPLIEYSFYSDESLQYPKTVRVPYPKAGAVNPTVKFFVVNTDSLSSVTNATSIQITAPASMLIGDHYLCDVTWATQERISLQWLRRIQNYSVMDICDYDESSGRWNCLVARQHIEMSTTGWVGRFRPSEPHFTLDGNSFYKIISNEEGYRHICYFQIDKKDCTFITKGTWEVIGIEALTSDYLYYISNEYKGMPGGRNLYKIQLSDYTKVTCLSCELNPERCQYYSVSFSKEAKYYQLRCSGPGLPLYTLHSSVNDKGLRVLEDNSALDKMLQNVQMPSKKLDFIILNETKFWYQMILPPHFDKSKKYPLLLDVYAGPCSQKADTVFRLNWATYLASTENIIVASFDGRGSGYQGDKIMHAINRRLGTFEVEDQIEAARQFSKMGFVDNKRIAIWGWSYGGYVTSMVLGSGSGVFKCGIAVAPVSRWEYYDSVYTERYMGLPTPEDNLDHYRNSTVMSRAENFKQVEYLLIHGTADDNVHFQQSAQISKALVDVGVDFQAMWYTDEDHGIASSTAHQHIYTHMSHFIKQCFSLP
Human-SGLT1, sequence (P13866 whole entry): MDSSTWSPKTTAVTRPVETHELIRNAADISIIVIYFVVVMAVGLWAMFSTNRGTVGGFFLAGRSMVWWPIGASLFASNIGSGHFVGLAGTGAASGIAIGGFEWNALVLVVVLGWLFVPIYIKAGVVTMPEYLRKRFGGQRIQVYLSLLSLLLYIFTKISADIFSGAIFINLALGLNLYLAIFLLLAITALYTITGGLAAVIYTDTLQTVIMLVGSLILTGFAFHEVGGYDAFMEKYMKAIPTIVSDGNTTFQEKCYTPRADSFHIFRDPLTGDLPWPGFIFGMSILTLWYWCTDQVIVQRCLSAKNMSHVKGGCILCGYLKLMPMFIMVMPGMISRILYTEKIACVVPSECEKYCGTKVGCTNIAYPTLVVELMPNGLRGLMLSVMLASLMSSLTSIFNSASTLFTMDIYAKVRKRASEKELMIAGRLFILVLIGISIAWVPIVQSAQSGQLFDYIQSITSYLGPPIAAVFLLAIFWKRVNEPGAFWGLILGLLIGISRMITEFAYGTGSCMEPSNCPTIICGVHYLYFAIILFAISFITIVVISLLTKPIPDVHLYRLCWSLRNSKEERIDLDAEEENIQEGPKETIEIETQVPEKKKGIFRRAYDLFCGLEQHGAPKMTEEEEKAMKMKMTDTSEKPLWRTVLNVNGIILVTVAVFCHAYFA
Human-SGLT2, sequence (P31639 whole entry): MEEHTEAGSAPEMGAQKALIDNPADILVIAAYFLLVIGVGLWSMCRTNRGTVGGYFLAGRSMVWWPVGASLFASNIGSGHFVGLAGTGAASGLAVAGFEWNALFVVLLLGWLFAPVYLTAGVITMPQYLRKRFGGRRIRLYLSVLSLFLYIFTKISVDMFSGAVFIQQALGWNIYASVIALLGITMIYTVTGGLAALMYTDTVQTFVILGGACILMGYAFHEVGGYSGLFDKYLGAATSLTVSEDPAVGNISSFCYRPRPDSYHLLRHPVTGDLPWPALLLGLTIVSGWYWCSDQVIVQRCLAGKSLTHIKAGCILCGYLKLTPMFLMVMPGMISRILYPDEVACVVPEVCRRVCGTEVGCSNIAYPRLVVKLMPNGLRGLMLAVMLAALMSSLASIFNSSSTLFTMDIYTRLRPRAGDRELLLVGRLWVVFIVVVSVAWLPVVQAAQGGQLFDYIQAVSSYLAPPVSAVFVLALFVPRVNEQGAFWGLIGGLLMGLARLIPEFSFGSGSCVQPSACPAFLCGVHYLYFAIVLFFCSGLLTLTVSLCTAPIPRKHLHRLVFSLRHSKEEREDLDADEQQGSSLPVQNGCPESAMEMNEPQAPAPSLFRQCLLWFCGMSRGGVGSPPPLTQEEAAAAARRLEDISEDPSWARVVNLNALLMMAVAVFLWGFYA

Turning to `CCc1ccc([C@@H]2O[C@H](SC)[C@@H](O)[C@H](O)[C@H]2O)cc1Cc1ccc(O[C@@H]2CCN([C@H]3CO[C@H](c4cc(F)ccc4F)[C@@H](N)C3)C2)c(C)c1` [WXD011], the figures for the half-maximal inhibitory concentration (IC50) in assay [1] and in assay [2] were 44.9 nM and 10.3 nM, respectively.

As for `CCc1ccc([C@@H]2O[C@H](SC)[C@@H](O)[C@H](O)[C@H]2O)cc1Cc1ccc(O[C@@H]2CCN([C@H]3CO[C@H](c4cc(F)ccc4F)[C@@H](N)C3)C2)c(C)c1` [WXD010], the IC50 was found to be 144 nM in assay [1], 21.2 nM in assay [2] and 164 nM in assay [3].

Turning to `CCOc1ccc(Cc2cc([C@@H]3O[C@H](SC)[C@@H](O)[C@H](O)[C@H]3O)ccc2Cl)cc1` [Soagliflozin, Sotagliflozin], in assay [4] (then 50% glucose solution 2 g/kg, solvent control group 1079), the OGTT glucose level AUC0-2 hr was determined as 917 mmol/L/min. Further, in assay [4] (urine during 0-24 h, solvent control group 0.4), the Urine sugar level is listed as 2913**** mg/200 g BW. In addition, in assay [4] (urine during 0-24 h, solvent control group 16.8), the Urine volume is 32.2**** mL/200 g BW.

Take `CCc1ccc([C@@H]2O[C@H](SC)[C@@H](O)[C@H](O)[C@H]2O)cc1Cc1ccc(OC2CCN(C3CO[C@H](c4cc(F)ccc4F)[C@@H](N)C3)CC2)cc1` (some centres unmarked) [WXD007]: the 50% inhibitory concentration (IC50) in assay [1] is 3.37 nM; in assay [2], 1.44 nM; in assay [3], 511 nM.

Take `CS[C@H]1O[C@@H](c2ccc(C(C)C)c(Cc3ccc(O[C@@H]4CCN([C@H]5CO[C@H](c6cc(F)ccc6F)[C@@H](N)C5)C4)cc3)c2)[C@H](O)[C@@H](O)[C@@H]1O` [WXD012]: the IC50 in assay [1] stood at 11.2 nM; in assay [2], 6.14 nM; in assay [3], 317 nM.

Broadly, the IC50 is the midpoint of a concentration-inhibition curve.
